From publication PMC4452934 (CPT: Pharmacometrics & Systems Pharmacology, 2015)

Assay: Excretion in bile-duct cannulated rats
Assay type: in vivo, rat

direct excretion in bile and urine: < 2 % of total clearance
SMILES: CCn1c(C(=O)N(C2CC2)C2CC2)cc2c3c(ncn3C)c(Nc3cc(C)n(C)n3)nc21 [BMS-911543]
